“Also recorded” adds a separate entry of the source. Counter-ions that a name gives are not always drawn. Like-named read-outs stand apart in the source and are kept apart here. Where a SMILES comes first, the peptide text is derived from it. Bridges are numbered along the chain shown (N, C = ends). [ ]: non-standard residue; d: D form. The star is where a group is joined. Octanoyl(6-Me) = CCC(C)CCCCC(=O)*; Dab = NCC[CH](N)C(=O)O
How the values were obtained:
E. coli DNA gyrase = E. coli DNA gyrase (Escherichia coli, UniProt P0AES4+P0AES6); format: biochemical; settings: for result in words, pathogen box screen for E. coli DNA gyrase: 400 compounds, several rounds of screening; for hit call, gyrase HTS (FIG. 7): 20 μM, triplicate, Z′ 0.64, S/B 4.3
Chain of E. coli DNA gyrase (P0AES4 whole entry, one chain of several): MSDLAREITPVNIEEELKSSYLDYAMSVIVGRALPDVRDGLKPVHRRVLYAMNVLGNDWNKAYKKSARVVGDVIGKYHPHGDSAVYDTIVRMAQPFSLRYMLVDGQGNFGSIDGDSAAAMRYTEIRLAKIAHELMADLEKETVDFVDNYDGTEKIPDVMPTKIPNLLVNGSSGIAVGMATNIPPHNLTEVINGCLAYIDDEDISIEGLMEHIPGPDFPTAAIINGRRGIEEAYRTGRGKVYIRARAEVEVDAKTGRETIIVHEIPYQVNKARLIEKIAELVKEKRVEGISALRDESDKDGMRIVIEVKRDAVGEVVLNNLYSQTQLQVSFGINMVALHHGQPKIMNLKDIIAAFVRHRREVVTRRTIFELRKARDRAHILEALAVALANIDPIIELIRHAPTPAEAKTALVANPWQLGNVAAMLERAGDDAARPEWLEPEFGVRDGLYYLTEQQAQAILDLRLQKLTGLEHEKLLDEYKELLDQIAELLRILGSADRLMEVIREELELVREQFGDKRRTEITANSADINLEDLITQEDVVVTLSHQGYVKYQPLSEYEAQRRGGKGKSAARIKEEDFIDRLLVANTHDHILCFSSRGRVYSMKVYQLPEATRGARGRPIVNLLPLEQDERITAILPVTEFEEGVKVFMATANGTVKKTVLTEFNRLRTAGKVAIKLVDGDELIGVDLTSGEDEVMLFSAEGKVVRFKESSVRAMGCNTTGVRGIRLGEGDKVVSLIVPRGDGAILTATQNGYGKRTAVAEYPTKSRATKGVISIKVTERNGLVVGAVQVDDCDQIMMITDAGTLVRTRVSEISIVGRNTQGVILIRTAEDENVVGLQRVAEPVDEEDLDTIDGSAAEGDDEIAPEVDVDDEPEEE

[1] = target: E. coli DNA topoisomerase I (Escherichia coli, UniProt P06612); format: biochemical; settings: for screening result in words (E. coli topo I HTS): interpretation of Table 5 / FIG. 11
Chain of E. coli DNA topoisomerase I (P06612 whole entry): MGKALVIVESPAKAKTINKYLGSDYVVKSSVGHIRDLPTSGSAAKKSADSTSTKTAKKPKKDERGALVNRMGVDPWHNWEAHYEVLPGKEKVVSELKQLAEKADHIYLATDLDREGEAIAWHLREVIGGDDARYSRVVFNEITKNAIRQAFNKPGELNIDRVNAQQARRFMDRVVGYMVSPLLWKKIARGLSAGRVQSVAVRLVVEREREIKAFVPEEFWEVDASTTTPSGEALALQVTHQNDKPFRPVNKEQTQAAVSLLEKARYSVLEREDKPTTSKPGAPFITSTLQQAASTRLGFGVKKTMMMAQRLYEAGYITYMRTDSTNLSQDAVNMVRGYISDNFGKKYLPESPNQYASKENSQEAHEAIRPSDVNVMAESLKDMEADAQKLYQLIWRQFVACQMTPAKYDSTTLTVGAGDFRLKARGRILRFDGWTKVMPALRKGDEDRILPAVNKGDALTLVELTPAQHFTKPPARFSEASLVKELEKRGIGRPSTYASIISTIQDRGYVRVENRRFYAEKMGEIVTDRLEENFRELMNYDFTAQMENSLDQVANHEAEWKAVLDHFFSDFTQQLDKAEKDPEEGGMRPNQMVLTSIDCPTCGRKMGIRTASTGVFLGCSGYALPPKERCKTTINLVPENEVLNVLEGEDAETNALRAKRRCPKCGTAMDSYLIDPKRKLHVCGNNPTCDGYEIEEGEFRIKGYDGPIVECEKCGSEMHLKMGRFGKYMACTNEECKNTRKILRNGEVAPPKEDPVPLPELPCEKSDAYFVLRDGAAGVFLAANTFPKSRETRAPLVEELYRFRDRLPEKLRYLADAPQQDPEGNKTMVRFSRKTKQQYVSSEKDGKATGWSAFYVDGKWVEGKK

Mtb DNA topoisomerase I = Mtb DNA topoisomerase I (Mycobacterium tuberculosis, UniProt P9WG49); format: biochemical; settings: for screening result in words (Mtb topo I HTS): interpretation of Table 4
Chain of Mtb DNA topoisomerase I (P9WG49 whole entry): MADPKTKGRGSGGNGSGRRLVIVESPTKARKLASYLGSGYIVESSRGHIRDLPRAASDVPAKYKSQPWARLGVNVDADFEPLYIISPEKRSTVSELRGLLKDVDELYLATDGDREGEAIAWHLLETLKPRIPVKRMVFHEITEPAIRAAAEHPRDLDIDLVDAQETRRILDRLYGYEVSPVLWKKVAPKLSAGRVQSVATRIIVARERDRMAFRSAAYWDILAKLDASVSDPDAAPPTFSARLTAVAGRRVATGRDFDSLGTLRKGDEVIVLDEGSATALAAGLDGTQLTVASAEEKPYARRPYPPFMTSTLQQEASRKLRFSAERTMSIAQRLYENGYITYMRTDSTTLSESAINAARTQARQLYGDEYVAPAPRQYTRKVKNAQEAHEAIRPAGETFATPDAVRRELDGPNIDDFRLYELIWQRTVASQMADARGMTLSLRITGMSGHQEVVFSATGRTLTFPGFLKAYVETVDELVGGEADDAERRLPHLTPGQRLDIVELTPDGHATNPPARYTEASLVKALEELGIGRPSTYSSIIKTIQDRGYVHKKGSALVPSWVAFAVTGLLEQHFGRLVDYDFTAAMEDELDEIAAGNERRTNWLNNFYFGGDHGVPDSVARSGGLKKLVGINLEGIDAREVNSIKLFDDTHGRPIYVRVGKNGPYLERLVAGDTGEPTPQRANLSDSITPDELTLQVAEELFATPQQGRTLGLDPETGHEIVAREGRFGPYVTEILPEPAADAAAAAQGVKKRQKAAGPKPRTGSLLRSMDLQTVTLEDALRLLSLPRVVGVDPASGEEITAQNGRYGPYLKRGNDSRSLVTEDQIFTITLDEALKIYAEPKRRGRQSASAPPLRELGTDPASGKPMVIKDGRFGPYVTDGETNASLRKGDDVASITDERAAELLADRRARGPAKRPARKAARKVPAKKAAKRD

[2] = target: variola virus DNA topoisomerase 1 (vTopI) (Variola virus, UniProt P32989); format: biochemical; settings: for screening result in words (Variola topo I HTS): interpretation of Table 6
Chain of variola virus DNA topoisomerase 1 (vTopI) (P32989 whole entry, looked up): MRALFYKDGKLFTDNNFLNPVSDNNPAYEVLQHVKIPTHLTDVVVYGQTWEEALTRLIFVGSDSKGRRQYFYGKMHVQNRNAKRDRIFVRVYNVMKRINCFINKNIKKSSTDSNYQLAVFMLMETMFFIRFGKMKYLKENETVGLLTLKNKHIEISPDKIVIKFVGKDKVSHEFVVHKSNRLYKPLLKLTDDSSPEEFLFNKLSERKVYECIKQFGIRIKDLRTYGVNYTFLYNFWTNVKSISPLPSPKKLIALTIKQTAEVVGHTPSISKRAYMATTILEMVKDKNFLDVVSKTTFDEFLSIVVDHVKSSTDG

[3] = target: T1, human DNA topoisomerase I (HuTopI) (Homo sapiens, UniProt P11387); assay: Human TopI-catalyzed DNA relaxation of sc pAB1_FL905 (fluorescence, FIG. 14); format: biochemical; settings: 25 nM huTopI, sc pAB1_FL905, λem=521 nm, λex=482 nm; read-out: IC50 for inhibition of HuTopI activities
T1 sequence (P11387 1-765): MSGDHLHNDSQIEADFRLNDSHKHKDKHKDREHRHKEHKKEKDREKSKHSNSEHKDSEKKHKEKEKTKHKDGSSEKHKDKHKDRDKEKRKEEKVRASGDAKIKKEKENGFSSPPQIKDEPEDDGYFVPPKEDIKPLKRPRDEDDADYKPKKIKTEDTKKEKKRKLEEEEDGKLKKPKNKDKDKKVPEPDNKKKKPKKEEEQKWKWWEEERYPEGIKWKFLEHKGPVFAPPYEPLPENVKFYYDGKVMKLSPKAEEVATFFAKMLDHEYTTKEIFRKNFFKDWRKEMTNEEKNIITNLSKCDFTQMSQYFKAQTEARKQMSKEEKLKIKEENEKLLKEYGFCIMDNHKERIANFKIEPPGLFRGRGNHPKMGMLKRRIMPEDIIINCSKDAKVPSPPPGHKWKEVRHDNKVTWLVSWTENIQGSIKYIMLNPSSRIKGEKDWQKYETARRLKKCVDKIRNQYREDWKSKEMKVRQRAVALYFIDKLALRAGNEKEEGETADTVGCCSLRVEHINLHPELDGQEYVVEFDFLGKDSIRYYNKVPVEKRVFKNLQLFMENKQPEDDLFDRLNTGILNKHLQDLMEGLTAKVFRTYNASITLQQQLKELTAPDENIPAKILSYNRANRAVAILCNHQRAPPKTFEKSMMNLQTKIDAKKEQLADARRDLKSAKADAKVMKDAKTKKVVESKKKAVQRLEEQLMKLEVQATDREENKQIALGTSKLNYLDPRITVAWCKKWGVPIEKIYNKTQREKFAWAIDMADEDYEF

MtbTopI = MtbTopI (Mycobacterium tuberculosis, UniProt P9WG49); assay: MtbTopI inhibition test of FIG. 14; format: biochemical
Chain of MtbTopI (P9WG49 whole entry): as the sequence (P9WG49 whole entry) above

supercoiled plasmid pAB1 = assay: T5 exonuclease-based HTS assay for DNA intercalators (sc pAB1, no topoisomerase)

Compound: O=C(O)c1cn(C2CC2)c2cc(N3CCNCC3)c(F)cc2c1=O [Ciprofloxacin]
- fluorescence, HTS screening of 50-compound library for E. coli DNA gyrase inhibitors (E. coli DNA gyrase): 1803
- screening result in words (Table 2, gyrase HTS) (E. coli DNA gyrase): DNA intercalators
- fluorescence, HTS screening of 50-compound library for E. coli DNA topoisomerase 1 inhibitors [1]: 1191
- fluorescence, HTS screening of 50-compound library for Mtb DNA topoisomerase 1 inhibitors (Mtb DNA topoisomerase I): 1493

Compound: CCN1CCN(c2cc3c(cc2F)c(=O)c(C(=O)O)cn3C2CC2)CC1 [Enrofloxacin]
- screening result in words (Table 2, gyrase HTS) (E. coli DNA gyrase; interpretation of Table 2): DNA intercalators
- screening result in words (Variola topo I HTS) [2]: can inhibit Variola topo I

Compound: NCC(=O)O [Glycine]
- fluorescence, HTS screening of 50-compound library for E. coli DNA gyrase inhibitors (E. coli DNA gyrase): 644
- fluorescence, HTS screening of 50-compound library for E. coli DNA topoisomerase 1 inhibitors [1]: 1589
- fluorescence, HTS screening of 50-compound library for Mtb DNA topoisomerase 1 inhibitors (Mtb DNA topoisomerase I): 1321

Compound: NCCCC[C@H](N)C(=O)O [L-lysine]
- fluorescence, HTS screening of 50-compound library (Table 6; vTopI) [2]: 1028

Compound: C[C@H]1COc2c(N3CCN(C)CC3)c(F)cc3c(=O)c(C(=O)O)cn1c23 [Levofloxacin]
- screening result in words (Table 2, gyrase HTS) (E. coli DNA gyrase; interpretation of Table 2): DNA intercalators
- result in words, pathogen box screen for E. coli DNA gyrase (E. coli DNA gyrase): inhibit E. coli DNA gyrase activities

Compound: CCn1cc(C(=O)O)c(=O)c2cc(F)c(N3CCNC(C)C3)c(F)c21 (centres unmarked) [Lomefloxacin]
- screening result in words (Table 2, gyrase HTS) (E. coli DNA gyrase; interpretation of Table 2): DNA intercalators

Compound: NC(N)=Nc1ccc(-c2ccc(-c3ccc(N=C(N)N)cc3Cl)o2)c(Cl)c1 [MMV688179]
- result in words, pathogen box screen for E. coli DNA gyrase (E. coli DNA gyrase): inhibit E. coli DNA gyrase activities

Compound: CCCCCCCCOC(=O)c1cc(O)c(O)c(O)c1 [NSC97419]
- screening result in words (E. coli topo I HTS) [1]: can inhibit E. coli topo I
- screening result in words (Mtb topo I HTS) (Mtb DNA topoisomerase I): new Mtb DNA topI inhibitors; also recorded: can inhibit Mtb topo I
- screening result in words (Variola topo I HTS) [2]: can inhibit Variola topo I

Compound: O=C1C=C(NCCc2cc(Br)c(O)c(Br)c2)C(=O)c2ncccc21 [NSC668394]
- IC50 [3]: 5 µM
- inhibition of MtbTopI in words (FIG. 14B and D) (MtbTopI): did not inhibit
- screening result in words (E. coli topo I HTS) [1]: new E. coli DNA Topo I inhibitor; also recorded: can inhibit E. coli topo I
- screening result in words (Mtb topo I HTS) (Mtb DNA topoisomerase I): new Mtb DNA topI inhibitors; also recorded: can inhibit Mtb topo I

Compound: CCn1cc(C(=O)O)c(=O)c2cc(F)c(N3CCNCC3)cc21 [Norfloxacin]
- screening result in words (Table 2, gyrase HTS) (E. coli DNA gyrase; interpretation of Table 2): DNA intercalators

Compound: CCC(C)CCCCC(=O)NC(CCN)C(=O)NC(C(=O)NC(CCN)C(=O)NC1CCNC(=O)C(C(C)O)NC(=O)C(CCN)NC(=O)C(CCN)NC(=O)C(CC(C)C)NC(=O)C(Cc2ccccc2)NC(=O)C(CCN)NC1=O)C(C)O (centres unmarked) [Polymyxin B sulfate salt] ({Octanoyl(6-Me)}-[Dab]T[Dab][Dab][Dab]FL[Dab][Dab]T; lactam 4-C; configuration not given here)
- fluorescence, HTS screening of 50-compound library (Table 6; vTopI) [2]: 1744

Compound: CN[C@H](CC(C)C)C(=O)N[C@H]1C(=O)N[C@@H](CC(N)=O)C(=O)N[C@H]2C(=O)N[C@H]3C(=O)N[C@H](C(=O)N[C@H](C(=O)O)c4cc(O)cc(O)c4-c4cc3ccc4O)[C@H](O)c3ccc(c(Cl)c3)Oc3cc2cc(c3O[C@@H]2O[C@H](CO)[C@@H](O)[C@H](O)[C@H]2OC2C[C@](C)(N)[C@H](O)[C@H](C)O2)Oc2ccc(cc2Cl)[C@H]1O (some centres unmarked) [Vancomycin]
- fluorescence, HTS screening of 50-compound library (Table 6; vTopI) [2]: 1398

Compound: Cc1ncc(C[n+]2csc(CCO)c2C)c(N)n1 [Vitamine B1]
- fluorescence, HTS screening of 50-compound library for E. coli DNA gyrase inhibitors (E. coli DNA gyrase): 467
- fluorescence, HTS screening of 50-compound library for E. coli DNA topoisomerase 1 inhibitors [1]: 1441
- fluorescence, HTS screening of 50-compound library for Mtb DNA topoisomerase 1 inhibitors (Mtb DNA topoisomerase I): 1224

Compound: CC[C@@]1(O)C(=O)OCc2c1cc1n(c2=O)Cc2cc3ccccc3nc2-1 [camptothecin]
- fluorescence, HTS screening of 50-compound library (Table 6; vTopI) [2]: 1712

Compound: CS[C@H]1SC[C@H]2C(=O)N(C)[C@@H](C(C)C)C(=O)OC[C@@H](NC(=O)c3cnc4ccccc4n3)C(=O)N[C@@H](C)C(=O)N(C)[C@@H]1C(=O)N(C)[C@@H](C(C)C)C(=O)OC[C@@H](NC(=O)c1cnc3ccccc3n1)C(=O)N[C@@H](C)C(=O)N2C [echinomycin]
- hit call, gyrase HTS (FIG. 7) (E. coli DNA gyrase): hits
- screening result in words (Table 2, gyrase HTS) (E. coli DNA gyrase; interpretation of Table 2): DNA intercalators
- fluorescence, HTS screening of 50-compound library (Table 6; vTopI) [2]: 1238

Compound: CCOc1ccc2nc3cc(N)ccc3c(N)c2c1 [ethacridine]
- hit call, gyrase HTS (FIG. 7) (E. coli DNA gyrase): hits
- screening result in words (Table 2, gyrase HTS) (E. coli DNA gyrase; interpretation of Table 2): DNA intercalators

Compound: NC[C@H]1O[C@H](O[C@H]2[C@H](O)[C@@H](O[C@H]3O[C@H](CO)[C@@H](O)[C@H](N)[C@H]3O)[C@H](N)C[C@@H]2N)[C@H](O)[C@@H](O)[C@@H]1O [kanamycin]
- fluorescence, HTS screening of 50-compound library for E. coli DNA gyrase inhibitors (E. coli DNA gyrase): 510
- fluorescence, HTS screening of 50-compound library for E. coli DNA topoisomerase 1 inhibitors [1]: 1719
- fluorescence, HTS screening of 50-compound library for Mtb DNA topoisomerase 1 inhibitors (Mtb DNA topoisomerase I): 1466

Compound: c1ccncc1 [pyridine]
- fluorescence, HTS screening of 50-compound library for E. coli DNA gyrase inhibitors (E. coli DNA gyrase): 568
- fluorescence, HTS screening of 50-compound library for DNA intercalators (supercoiled plasmid pAB1): 218
- fluorescence, HTS screening of 50-compound library for E. coli DNA topoisomerase 1 inhibitors [1]: 1339
- fluorescence, HTS screening of 50-compound library for Mtb DNA topoisomerase 1 inhibitors (Mtb DNA topoisomerase I): 1380

Compound: Nc1ccc(S(N)(=O)=O)cc1 [sulfanilamide]
- fluorescence, HTS screening of 50-compound library for E. coli DNA gyrase inhibitors (E. coli DNA gyrase): 558
- fluorescence, HTS screening of 50-compound library for E. coli DNA topoisomerase 1 inhibitors [1]: 1426
- fluorescence, HTS screening of 50-compound library for Mtb DNA topoisomerase 1 inhibitors (Mtb DNA topoisomerase I): 1523

Compound: Cc1ccc(C(=O)Nc2ccc(S(=O)(=O)O)c3cc(S(=O)(=O)O)cc(S(=O)(=O)O)c23)cc1NC(=O)c1cccc(NC(=O)Nc2cccc(C(=O)Nc3cc(C(=O)Nc4ccc(S(=O)(=O)O)c5cc(S(=O)(=O)O)cc(S(=O)(=O)O)c45)ccc3C)c2)c1 [suramin]
- hit call, gyrase HTS (FIG. 7) (E. coli DNA gyrase): hits
- screening result in words (Table 2, gyrase HTS) (E. coli DNA gyrase; interpretation of Table 2): DNA intercalators
- screening result in words (E. coli topo I HTS) [1]: can inhibit E. coli topo I
- screening result in words (Mtb topo I HTS) (Mtb DNA topoisomerase I): can inhibit Mtb topo I
- screening result in words (Variola topo I HTS) [2]: can inhibit Variola topo I

Compound: CC[C@@]1(O)C(=O)OCc2c1cc1n(c2=O)Cc2cc3c(CN(C)C)c(O)ccc3nc2-1 [topotecan]
- screening result in words (Mtb topo I HTS) (Mtb DNA topoisomerase I): new Mtb DNA topI inhibitors; also recorded: can inhibit Mtb topo I

Compound: citrinin
- fluorescence, HTS screening of 50-compound library (Table 6; vTopI) [2]: 1311
